Laboratory results taken from PubChem BioAssay AID330 (DTP/NCI, 2004).
Several values for one entry are separate records, joined by “and”; a condition that tells them apart may be missing. Equal entries are not always repeated. Inconclusive results and toxic doses are left out. The calls were made as follows: active = survival T/C of 150% or more; inactive = T/C below 125% in these data.

Test system: P388 leukemia ip, CD2F1 mice, survival T/C
Test: NCI In Vivo Anticancer Drug Screen. Data for tumor model P388 Leukemia (intraperitoneal) in CD2F1 (CDF1) mice
Conditions: endpoint: median survival time, higher = longer survival
Method in brief: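 Mice carrying the transplanted tumor received test compound or vehicle. Survival was recorded in each group, and the value is the treated-group measurement divided by that of the vehicle-treated control group.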

[1] = dose: 50.0 mg/kg/injection, schedule: Q01DX005 (ip), vehicle: Klucel (hydroxypropylcellulose) (HPC)
[2] = dose: 100.0 mg/kg/injection, schedule: Q01DX005 (ip), vehicle: Klucel (hydroxypropylcellulose) (HPC)
[3] = dose: 200.0 mg/kg/injection, schedule: Q01DX005 (ip), vehicle: Klucel (hydroxypropylcellulose) (HPC)
[4] = dose: 60.0 mg/kg/injection, schedule: Q01DX005 (ip), vehicle: saline with Tween-80
[5] = dose: 120.0 mg/kg/injection, schedule: Q01DX005 (ip), vehicle: saline with Tween-80
[6] = dose: 240.0 mg/kg/injection, schedule: Q01DX005 (ip), vehicle: saline with Tween-80
[7] = dose: 50.0 mg/kg/injection, schedule: Q04DX003 (ip), vehicle: saline
[8] = dose: 100.0 mg/kg/injection, schedule: Q04DX003 (ip), vehicle: saline
[9] = dose: 200.0 mg/kg/injection, schedule: Q04DX003 (ip), vehicle: saline
[10] = dose: 6.25 mg/kg/injection, schedule: Q01DX009 (ip), vehicle: saline
[11] = dose: 12.5 mg/kg/injection, schedule: Q01DX009 (ip), vehicle: saline
[12] = dose: 50.0 mg/kg/injection, schedule: Q01DX009 (ip), vehicle: saline

Measured: T/C

CCOc1ccc(C(C)c2cc3c(cc2OCCO)OCO3)cc1 (centres undefined)
inactive: dose: 12.5 mg/kg/injection, schedule: Q01DX005 (ip), vehicle: Klucel (hydroxypropylcellulose) (HPC) 109 % of control | dose: 25.0 mg/kg/injection, schedule: Q01DX005 (ip), vehicle: Klucel (hydroxypropylcellulose) (HPC) 97 % of control | [1] 104 % of control | [2] 103 % of control | [3] 102 % of control

O=C1C=Cn2cc(-c3ccccc3)c(-c3ccccc3)c21
inactive: [1] 96 % of control | [2] 97 % of control | [3] 95 % of control

C[Si](C)(C)CCCn1ccc(=O)[nH]c1=O
inactive: [4] 98 % of control | [5] 92 % of control | [6] 88 % of control

CCc1ccccc1C1(Br)C(=O)c2ccccc2C1=O
inactive: dose: 100.0 mg/kg/injection, schedule: Q04DX002 (ip), vehicle: saline 102 % of control | dose: 200.0 mg/kg/injection, schedule: Q04DX002 (ip), vehicle: saline 100 % of control | dose: 400.0 mg/kg/injection, schedule: Q04DX002 (ip), vehicle: saline 101 % of control

[O-][N+]1=C(/C=C/C=C/c2ccccc2)CCC1
inactive: dose: 50.0 mg/kg/injection, schedule: Q01DX009 (ip), vehicle: other 95 % of control | dose: 100.0 mg/kg/injection, schedule: Q01DX009 (ip), vehicle: other 107 % of control | dose: 200.0 mg/kg/injection, schedule: Q01DX009 (ip), vehicle: other 118 % of control

O=C1NC(=O)C2=C1CCC2Br (centres undefined)
inactive: dose: 3.13 mg/kg/injection, schedule: Q01DX009 (ip), vehicle: distilled water + Tween-80 101 % of control | dose: 6.25 mg/kg/injection, schedule: Q01DX009 (ip), vehicle: distilled water + Tween-80 102 % of control

O=C(NC(CSSCC(NC(=O)OCc1ccccc1)C(=O)O)C(=O)O)OCc1ccccc1 (centres undefined)
inactive: dose: 100.0 mg/kg/injection, schedule: Q04DX003 (ip), vehicle: other 100 % of control | dose: 200.0 mg/kg/injection, schedule: Q04DX003 (ip), vehicle: other 100 % of control | dose: 400.0 mg/kg/injection, schedule: Q04DX003 (ip), vehicle: other 100 % of control

CC1(C)CN=C(NN=C(/C=C/c2ccc(C(F)(F)F)cc2)/C=C/c2ccc(C(F)(F)F)cc2)NC1
inactive: dose: 60.0 mg/kg/injection, schedule: Q01DX005 (ip), vehicle: Klucel (hydroxypropylcellulose) (HPC) 98 % of control | dose: 120.0 mg/kg/injection, schedule: Q01DX005 (ip), vehicle: Klucel (hydroxypropylcellulose) (HPC) 98 % of control

C[N+](C)(C)CN1C(=O)c2ccccc2C1=O
inactive: [7] 100 % of control | [8] 104 % of control | [9] 95 % of control

Cc1csc2ncnc(N)c12
inactive: dose: 50.0 mg/kg/injection, schedule: Q04DX003 (ip), vehicle: Klucel (hydroxypropylcellulose) (HPC) 106 % of control | dose: 100.0 mg/kg/injection, schedule: Q04DX003 (ip), vehicle: Klucel (hydroxypropylcellulose) (HPC) 115 % of control | dose: 200.0 mg/kg/injection, schedule: Q04DX003 (ip), vehicle: Klucel (hydroxypropylcellulose) (HPC) 108 % of control

CCOC(=O)CNC(=O)NNC(=O)OCC
inactive: [10] 98 % of control | [11] 91 % of control | [12] 100 % of control | dose: 100.0 mg/kg/injection, schedule: Q01DX009 (ip), vehicle: saline 100 % of control | dose: 200.0 mg/kg/injection, schedule: Q01DX009 (ip), vehicle: saline 100 % of control

CC(=O)Nc1ccc(N=Nc2c(C)nn(C(=N)N)c2C)cc1
inactive: [10] 100 % of control and 103 % of control | [11] 108 % of control and 109 % of control and 93 % of control | dose: 25.0 mg/kg/injection, schedule: Q01DX009 (ip), vehicle: saline 114 % of control | [12] 123 % of control | [7] 98 % of control | [8] 110 % of control | [9] 122 % of control | dose: 300.0 mg/kg/injection, schedule: Q04DX003 (ip), vehicle: saline 121 % of control

C[CH](C)[Sn](=[O])[CH](C)C
inactive: dose: 0.78 mg/kg/injection, schedule: Q01DX009 (ip), vehicle: saline 113 % of control | dose: 1.56 mg/kg/injection, schedule: Q01DX009 (ip), vehicle: saline 106 % of control | dose: 3.12 mg/kg/injection, schedule: Q01DX009 (ip), vehicle: saline 107 % of control

Cc1cc2cc3c(c(C(=O)O)c2o1)C(=O)c1ccccc1C3
inactive: [4] 107 % of control | [5] 111 % of control | [6] 94 % of control
